# Patent US10273233B2, “Inhibitors of influenza viruses replication” (Vertex Pharmaceuticals Incorporated, priority 2015, dated 2019)
# Assays:
# [1] = tested on: influenza type A (H1N1, H3N2, and H3N8) viral strains; format: cell-based
# [2] = tested on: A/WS/33; experiment: 3-day CP assay in MDCK cells; format: cell-based; conditions: Influenza A virus
# [3] = tested on: A/NWS/33; experiment: 3-day CP assay in MDCK cells; format: cell-based, influenza A
# [4] = tested on: A/Puerto Rico/8/34; experiment: 3-day CP assay in MDCK cells; format: cell-based; conditions: Influenza A virus
# [5] = tested on: A/Weiss/43; experiment: 3-day CP assay in MDCK cells; format: cell-based; conditions: Influenza A virus
# [6] = tested on: A/FM/1/47; experiment: 3-day CP assay in MDCK cells; format: cell-based; conditions: Influenza A virus
# [7] = tested on: A/Mal/302/54; experiment: 3-day CP assay in MDCK cells; format: cell-based; conditions: Influenza A virus
# [8] = tested on: A/Denver/1/57; experiment: 3-day CP assay in MDCK cells; format: cell-based; conditions: Influenza A virus
# [9] = tested on: A/Aichi/2/68; experiment: 3-day CP assay in MDCK cells; format: cell-based; conditions: Influenza A virus
# [10] = tested on: A/Port Chalmers/1/73; experiment: 3-day CP assay in MDCK cells; format: cell-based; conditions: Influenza A virus
# [11] = tested on: A/Victoria/3/75; experiment: 3-day CP assay in MDCK cells; format: cell-based; conditions: Influenza A virus
# [12] = tested on: A/New Jersey/8/76; experiment: microbe, parasite or virus in culture; format: cell-based; conditions: Influenza A virus, MDCK
# [13] = tested on: A/Wisconsin/67/2005; experiment: 3-day CP assay in MDCK cells; format: cell-based; conditions: Influenza A virus
# [14] = tested on: A/Georgia/17/2006; experiment: 3-day CP assay in MDCK cells; format: cell-based; conditions: Influenza A virus
# [15] = tested on: A/Georgia/20/2006; experiment: 3-day CP assay in MDCK cells; format: cell-based, influenza A
# [16] = tested on: A/Hawaii/2/2006; experiment: 3-day CP assay in MDCK cells; format: cell-based; conditions: Influenza A virus
# [17] = tested on: A/Missouri/3/2006; experiment: 3-day CP assay in MDCK cells; format: cell-based; conditions: Influenza A virus
# [18] = tested on: A/Santiago/7981/2006; experiment: 3-day CP assay in MDCK cells; format: cell-based; conditions: Influenza A virus
# [19] = tested on: A/St. Petersburg8/2006; experiment: 3-day CP assay in MDCK cells; format: cell-based; conditions: Influenza A virus
# [20] = tested on: A/Cambodia0371/2007; experiment: 3-day CP assay in MDCK cells; format: cell-based; conditions: Influenza A virus
# [21] = tested on: A/Henan/Jinshui/147/2007; experiment: 3-day CP assay in MDCK cells; format: cell-based; conditions: Influenza A virus
# [22] = tested on: A/South Dakota/6/2007; experiment: 3-day CP assay in MDCK cells; format: cell-based; conditions: Influenza A virus
# [23] = tested on: A/Texas/12/2007; experiment: 3-day CP assay in MDCK cells; format: cell-based; conditions: Influenza A virus
# [24] = tested on: A/California/07/2009; experiment: 3-day CP assay in MDCK cells; format: cell-based; conditions: Influenza A virus, H1N1, MDCK, in Sus scrofa
# [25] = tested on: A/California/07/2009 NYMC, X-179A; experiment: 3-day CP assay in MDCK cells; format: cell-based; conditions: Influenza A virus
# [26] = tested on: A/Mexico/4108/2009; experiment: 3-day CP assay in MDCK cells; format: cell-based; conditions: Influenza A virus
# [27] = tested on: A/New York/18/2009; experiment: 3-day CP assay in MDCK cells; format: cell-based; conditions: Influenza A virus
# [28] = tested on: A/Virginia/ATCC2/2009; experiment: 3-day CP assay in MDCK cells; format: cell-based; conditions: Influenza A virus
# [29] = tested on: A/Virginia/ATCC3/2009; experiment: 3-day CP assay in MDCK cells; format: cell-based; conditions: Influenza A virus
# [30] = tested on: A/Swine/Iowa/15/30; experiment: microbe, parasite or virus in culture; format: cell-based, influenza A; conditions: read-out: EC50
# [31] = tested on: A/Swine/1976/31; experiment: microbe, parasite or virus in culture; format: cell-based; conditions: Influenza A virus, MDCK, in Sus scrofa
# [32] = tested on: A/VN/1203/2004 (H5N1); experiment: microbe, parasite or virus in culture; format: cell-based; conditions: Influenza A virus, H5N1, MDCK
# [33] = tested on: B/Lee/40; experiment: 3-day CP assay in MDCK cells; format: cell-based; conditions: Influenza B virus
# [34] = tested on: B/Russia/69; experiment: 3-day CP assay in MDCK cells; format: cell-based; conditions: Influenza B virus
# [35] = tested on: B/Memphis/20/1996--070; experiment: 3-day CP assay in MDCK cells; format: cell-based; conditions: Influenza B virus
# [36] = tested on: B/Memphis/20/1996--071; experiment: 3-day CP assay in MDCK cells; format: cell-based; conditions: Influenza B virus
# [37] = tested on: influenza A; experiment: Influenza A mouse model, Compound (1) with or without oseltamivir; format: in vivo, Mice; conditions: for Percent Survival: 10 days
# Method: Referring to FIG. 32, the potential for a positive therapeutic interaction between Compound (1) and oseltamivir against influenza A was explored in the mouse model. Mice were challenged with influenza A and dosed with vehicle (10 mL/kg 0.5% MC) or Compound (1) at 1, 3, 10, or 30 mg/kg BID alone, or in combination with 10 mg/kg BID oseltamivir. Therapy was started 48 hours post influenza A infection and continued for 10 days. All of the vehicle-treated controls succumbed to disease by study day 8 (Table 21).
# [38] = tested on: influenza B; experiment: Influenza B mouse model, Compound (1) with oseltamivir; format: in vivo, Mice
# Method: The consequence of combining Compound (1) and oseltamivir was explored in the influenza B mouse model. Mice were dosed prophylactically with vehicle (10 mL/kg 0.5% MC), 10 mg/kg oseltamivir, or oseltamivir in combination with Compound (1) at 10 mg/kg, 30 mg/kg or 60 mg/kg BID and treatment continued for 10 days.
structure (smiles),measurement,setting,value
CC(C)(C)[C@@H](CC(=O)O)Nc1nc(-c2c[nH]c3ncc(F)cc23)ncc1F [Compound (1)],EC50,[1],4.3 nM
same,EC50,[2],2.4 nM
same,EC50,[3],1.7 nM
same,EC50,[4],14 nM
same,EC50,[5],1.3 nM
same,EC50,[6],1.5 nM
same,EC50,[7],3.9 nM
same,EC50,[8],1.4 nM
same,EC50,[9],4.4 nM
same,EC50,[10],2.3 nM
same,EC50,[11],2.1 nM
same,EC50,[12],0.96 nM
same,EC50,[13],3.7 nM
same,EC50,[14],9.1 nM
same,EC50,[15],1.7 nM
same,EC50,[16],1.2 nM
same,EC50,[17],2.6 nM
same,EC50,[18],1.8 nM
same,EC50,[19],1.3 nM
same,EC50,[20],1.2 nM
same,EC50,[21],19 nM
same,EC50,[22],0.52 nM
same,EC50,[23],30 nM
same,EC50,[24],4 nM
same,EC50,[25],10 nM
same,EC50,[26],3.7 nM
same,EC50,[27],1.4 nM
same,EC50,[28],1.4 nM
same,EC50,[29],1.2 nM
same,EC50,[30],4.3 nM
same,EC50,[31],5.2 nM
same,EC50,[32],4.2 nM
same,EC50,[33],> 10000 nM
same,EC50,[34],> 10000 nM
same,EC50,[35],> 10000 nM
same,EC50,[36],> 10000 nM
same,protection from mortality,[37]; 1 or 3 mg/kg BID Compound (1) with 10 mg/kg oseltamivir dosed BID,increased protection from mortality compared to the single agents
same,Percent Survival,"[37]; Compound (1) 1 mg/kg BID alone, started +48 hours after infection",0%
same,Percent Survival,"[37]; Compound (1) 1 mg/kg BID in combination with oseltamivir 10 mg/kg BID, +48 hours",87.5%
same,Percent Survival,"[37]; Compound (1) 3 mg/kg BID alone, started +48 hours after infection",75%
same,Percent Survival,"[37]; Compound (1) 3 mg/kg BID in combination with oseltamivir 10 mg/kg BID, +48 hours",100%
same,Percent Survival,"[37]; Compound (1) 10 mg/kg BID alone, started +48 hours after infection",100%
same,Percent Survival,"[37]; Compound (1) 10 mg/kg BID in combination with oseltamivir 10 mg/kg BID, +48 hours",100%
same,Percent Survival,"[37]; Compound (1) 30 mg/kg BID alone, started +48 hours after infection",100%
same,Percent Survival,"[37]; Compound (1) 30 mg/kg BID in combination with oseltamivir 10 mg/kg BID, +48 hours",100%
same,protection from mortality,[37]; Compound (1) at 3 mg/kg BID alone,partial survival benefit
same,protection from mortality,[37]; Compound (1) at 10 or 30 mg/kg BID alone,complete protection from mortality
same,protection from mortality,"[37]; administered alone: Compound (1) 1 mg/kg BID, oseltamivir 10 mg/kg",failed to protect mice from influenza infection
same,interaction of Compound (1) and oseltamivir combination,[37]; combination with oseltamivir,synergistic effect
same,survival benefit and protection from BW and lung function loss,"[38]; 10, 30 or 60 mg/kg BID Compound (1) in combination with oseltamivir 10 mg/kg BID, prophylactic, 10 days",the same survival benefit and protection from BW and lung function loss as oseltamivir treatment alone
same,interaction when added to oseltamivir therapy,[38]; Compound (1) added to oseltamivir therapy,no negative interaction
same,activity against influenza B,"[38]; mouse, in vivo",lack of Compound (1) activity against influenza B
